Patent publication US9511196B2, “Systems and methods for promoting wound healing” (priority 2009, dated 2016)
Where two headings read alike, the source gives them in different places.

Experiments:
2nd degree burn wounds = test: Burn wound model: change in burn wound area after gas treatment; assay type: in vivo, rat; details: 1000 ppm NO or 250 ppm CO, 15 minutes four times per day; for effect on burn healing compared to untreated burn wound: 10 days
Protocol: Similar to the rats used for the type I diabetic model, Rats were anesthetized with the mixture of ketamine 50 mg/kg IM and xylazine 5 mg/kg IM administered intraperitoneally. Anesthesia levels were maintained by additional injections of this mixture as needed. Each rat was allowed to breathe spontaneously. Hair was removed from the rats' backs and the backs of the rat were subsequently wiped with 70% ethanol. The standard rat burn model was used in which burns are produced by hot metal used as a heat source. A customized soldering iron was used to cause superficial dermal second-degree burns on. the backs of the rats. […] It was heated to 80° C. and applied to the skin for 10 seconds, which caused second degree burns. Immediately after wounding, the gasket of an exemplary gas delivery system as disclosed herein was bonded to the skin area surrounding each treated wound by means of a thin layer of Skin-Bond® Cement (Smith & Nephew Inc. Largo, Fla. 33773). The animals were then transferred to individual cages for recovery. Rats received an analgesic (Butorphanol 1-2 mg/kg) injected subcutaneously every four hours for a maximum period of 2 days. To prevent dehydration, 1-2 ml of warm sterile saline/100 g of body weight was injected subcutaneously during the recovery period. The treatment procedures described in more detail below were executed in the same way for the burn wound model as the diabetic wound model. After a certain time period, the rats were again anesthetized using the procedure described above and the wounded skin was taken from the backs of these rats for analysis. Then rats were then euthanized with pentothal (150 mg/kg) injected intraperitoneally.
(§1) All gas mixtures were prepared and stored in HandyGrab Tedlar gas sampling bag with capacity of 0.6 liter (Zefon International, St. Petersburg, Fla., cat#HG-PP-06) prior to each treatment. Static mixing with nitrogen as a diluting gas was performed. To prepare nitric oxide mixtures in nitrogen, a sample of 1000 ppm nitric oxide in nitrogen (Airgas Specialty Gases, Chicago, Ill.) was drawn with a 50 cubic centimeters (cc) disposable medical syringe and then transferred to a Tedlar bag through an injection port. Then the appropriate volume of nitrogen (Airgas Inc., Radur, Pa.) was delivered to the bag that was controlled by a Riteflow® flowmeter (Bel-Art Products, Pequannock, N.J.). The same technique was used to prepare carbon monoxide mixtures in nitrogen, but a 1 cc disposable medical syringe was used to dosage pure carbon monoxide (Air Products and Chemicals Inc., Parkersburg, W. Va.). To calculate the concentrations of mixed gases, the following Equation 2 was applied: Cppm=Vc/(Vc+Vd)×10^6·ppm (2) where Vc is the target gas volume and Vd is the dilutant volume.
Once the rats were prepared with a modified gas delivery system in place, 20 cm^3 of nitrogen was purged through whole gas capsule to remove air. Then 20 cm^3 of a therapeutic gas mixture was delivered in a medical syringe to a gas vent, and the gas vent was sealed. The wounds were exposed to gas mixtures for specified period of times (15 minutes to 1 hour). The treatment was repeated four times a day, while the rat was awake and fully ambulatory. Negative control wounds remained uncovered, allowing access of air to the wound site. Positive control wounds were exposed to pure nitrogen, which served as the diluting gas for every mixture prepared. […]

[1] = test system: diabetic type I excisional wounds; test: Type I diabetes model: excisional wound contraction after gas treatment; assay type: in vivo, rat; details: for effect on diabetic wound contraction / wound area as % of its initial area / wound size as % of its starting point: 1000 ppm NO or 250 ppm CO, 15 minutes four times per day
Protocol: Male Sprague-Dawley rats (body weight 400-450 g) were used for these studies, were kept in an animal care facility for 48 h at 21° C. in a temperature controlled room with a 12 h light/dark cycle and 30-70% air-changed humidity. Animals were allowed unlimited access to regular chow food and drinking water. Diabetes type I was induced in rats by injection of streptozotocin (STZ) (65 mg/kg in pH 4.5 citrate buffer, IP). To relieve the pain associated with the intraperitoneal streptozotocin injection, rats were first put under deep anesthesia by injecting (ketamine 50 mg/kg IM, xylazine 5 mg/kg, IM). Anesthesia levels were checked by corneal reflex and toe pinch, and sustained by additional injections of the ketamine and xylazine mixture. After 10 days of streptozotocin injections the blood glucose levels were measured to determine if the rats could be considered diabetic. If the blood glucose level was above 300 mg/dL, the rat was considered diabetic. Rats were fasted overnight before the glucose level was measured. After injecting anesthesia, the tip of the tail was sterilized by wiping it with 70% alcohol. Approximately 2 mm of the tail was cut off to withdraw a sample of blood (35 μl), and the tip was compressed for 45-60 seconds to stop the bleeding.
The diabetic rats were then anesthetized (if needed) with a mixture of ketamine (50 mg/kg I.M.) and xylazine (5 mg/kg I.M.) administered intraperitoneally. Once anesthetized, hair was removed from the rats' backs using an electric razor and the backs of the rat were subsequently wiped with a 70% ethyl alcohol swab. On either side of the midline of the rat's back, four excision wounds were made with a sterile about 5 mm in diameter Biopsy Punch (Miltex, Inc. York, Pa. cat#33-35). The resulting wounds were approximately 4 mm deep and were deprived of epidermis, dermis and subcutaneous fat. Immediately after wounding, the gasket of an exemplary gas delivery system as disclosed herein was bonded to the skin area surrounding each treated wound by means of a thin layer of Skin-Bond® Cement (Smith & Nephew Inc. Largo, Fla. 33773).
After the surgery and during the recovery period from anesthesia, rats were turned from side to side to avoid pulmonary edema and to ensure unobstructed breathing. The rats were transferred to cages lined with sterile drape and contained moist food. To minimize any stress associated with pain, the rats were injected subcutaneously with analgesic (Butorphanol 1-2 mg/kg) every four hours for a maximum period of 2 days. Additionally, 1-2 ml of warm sterile saline/100 g of body weight was injected subcutaneously during the recovery period to prevent dehydration. Once the rats were completely awake, they were placed in cages with free access to food and drinking water. During the postoperative care period, rats were monitored for signs of infection, or self inflicted trauma. Additionally food and water intake was monitored. The diabetic rats were subjected to treatment as described below.
as §1, with “To calculate the concentrations of mixed gases, the following Equation 2 was applied: Cppm=Vc/(Vc+Vd)×10^6·ppm (2) where Vc is the target gas volume and Vd is the dilutant volume.” left out

normal excisional wounds = test: Normal excisional wound: wound size after gas treatment; assay type: in vivo, rat; details: 1000 ppm NO or 250 ppm CO, 15 minutes four times per day; for wound area shrunk to % of initial: day 3; for wound size/area as % of its starting point: day 10
Protocol: (§2) Provided methods and apparatus were tested on second degree burn wounds (normal and diabetic), excisional wounds (normal and diabetic), and surgical incisional wounds (normal and diabetic) in rat models. Various treatment protocols were evaluated and dose and time dependent studies were carried out on normal excisional wounds to determine the [NO] and [ONOO^−] release profile using exogenous NO and CO.
as §1
Once the rats were prepared with a modified gas delivery system in place, 20 cm^3 of nitrogen was purged through whole gas capsule to remove air. Then 20 cm^3 of a therapeutic gas mixture was delivered in a medical syringe to a gas vent, and the gas vent was sealed. The wounds were exposed to gas mixtures for specified period of times (15 minutes to 1 hour). The treatment was repeated four times a day, while the rat was awake and fully ambulatory. Negative control wounds remained uncovered, allowing access of air to the wound site. Positive control wounds were exposed to pure nitrogen, which served as the diluting gas for every mixture prepared.
After a specified time interval (1 day, 3 days, 5 days, 7 days, 10 days), rats were again anesthetized with a mixture of ketamine (50 mg/kg I.M.) and xylazine (5 mg/kg I.M.). The gas delivery system was removed by applying few drops of Uni-Solve® (Smith & Nephew Inc. Largo, Fla. 33773), which enabled the removal of the gas delivery system from the skin. Wounds were then removed using a 6 mm in diameter biopsy punch (Miltex, Inc. York, Pa. cat #33-36). Removed wounds were immediately used to measure the NO and ONOO^− release or frozen in liquid nitrogen to be later subjected to hydroxyproline analysis and western blot analysis or embedded in TBS Tissue Frizzing Medium for histological analysis. After the wounded tissue was removed, the rats were euthanized by injecting pentothal at a dose of 150 mg/kg. The rats were then placed in cold storage in an animal care facility.
In FIG. 9, depicted are changes in wound size of a normal excisional wound after treatment with either NO or CO. The photographs were taken at 1, 3, 5, 7 and 10 days after wounding. Normal excisional wounds were treated with either 1000 ppm NO or 250 ppm of CO gas mixtures for 15 minutes four times per day with at least an hour break between treatments. A marker 305 was placed next to each excisional wound to show the size/area of the original wound. […] A very rapid drop in wound area was observed between the 5th and 7th day of healing. […] At day 10, the wound area/size had decreased to 31%+/−5% of its initial starting point. […] At day 3, the area of the NO treated wound had shrunk to 58±4.9%, and the area of gCO treated wound had shrunk to 63±5.7%, whereas the area of untreated wound decreased to 81±6.1%. By day 10 NO treated wounds were much smaller than the untreated wounds and had decreased in size/area to 15%+/−3.8% of its starting point.

[2] = test system: burn, excisional and surgical incisional wounds; test: Wound healing time in rat wound models (burn, excisional, incisional; normal and diabetic); assay type: in vivo; details: exogenous gas treatment
Protocol: as §2
It is believed that gasotransmitters NO, O2 and CO delivered locally to a wound site may influence the healing process via changing the NO/ONOO^− balance. […] As a result, there was a high formation of cytotoxic ONOO^−, which can contribute to wound healing impairment. Accordingly, wounds were exposed individually to either gaseous NO or CO using a modified gas delivery system surrounding an injured area. To determine the efficacy of gas therapy in restoring the NO/ONOO^− balance, treated wounds were subjected to NO and ONOO^− measurements. Also, eNOS and iNOS expression levels were determined using western blotting. Collagen formation and maturation, also wound contraction were investigated and compared to results of untreated wounds.

rat model of wound = assay type: in vivo
Protocol: In vivo efficiency of the provided gas delivery system in the process of accelerating wound healing was also tested. For these experiments, a rat model of wound was studied. Indexes of post-ischemic injury included: morphometric analysis, tissue edema, using a laser rate of wound healing process, level of collagen, and breaking strength.

[3] = inhaled for over 30 min; cited from earlier work
[4] = about 50-1000 ppm NO, about 50-250 ppm CO, about 100% O2

Structure (SMILES)	effect on burn healing compared to untreated burn wound (2nd degree burn wounds)	increase of burn wound area (2nd degree burn wounds; day 3)	increase of burn wound area (2nd degree burn wounds; day 10)	effect on diabetic wound contraction [1]	wound area as % of its initial area ([1]; day 7)	size difference between treated and untreated diabetic excisional wounds ([1]; day 10)	wound size as % of its starting point ([1]; day 10)	effect on normal excisional wound contraction (normal excisional wounds)	wound area shrunk to % of initial (normal excisional wounds)	wound size/area as % of its starting point (normal excisional wounds)	decreased wound healing time (versus control, untreated) [2]	wound healing in a single gas treatment (rat model of wound; [4])	concentration believed to be dangerous when inhaled [3]	wound area as % of its initial area ([1]; day 5)	wound healing in a single gas treatment (rat model of wound; rat, in vivo)
[N]=O [NO, nitric oxide]	reduced swelling and accelerated burn healing process	76.3±4.2%	roughly 58.0%+/−3.1	accelerated wound contraction and stimulated wound repair	57.8±3.1%	~17%	29.8%+/−2.5	accelerated wound contraction and resulted in a significant decrease in wound size	58±4.9%	15%+/−3.8	30-50%	good results	> 500 ppm	–	–
[C-]#[O+] [CO, carbon monoxide]	reduced swelling and accelerated burn healing process	–	roughly 67.1%+/−3.5	some influence on wound contraction	–	–	41.4%+/−2.8	accelerated wound contraction and resulted in a significant decrease in wound size	63±5.7%	22.2%+/−3.3	at least 20%	good results	higher than 1500 ppm	82.6±3.7%	–
O=O [O2, Oxygen]	–	–	–	–	–	–	–	–	–	–	–	–	–	–	good results
